The assay deals with BDF1 mice, L1210 6-MP/6-TG resistant leukemia ip, survival T/C. Kind of assay: NCI In Vivo Anticancer Drug Screen. Data for tumor model L1210 Leukemia resistant to 6-MP and 6-Thioguanine; NSC 755, NSC 752 (intraperitoneal) in B6D2F1 (BDF1) mice. Particulars: endpoint: mean survival time, higher = longer survival. The method, then: The antitumor activity of compounds was measured in mice bearing transplantable tumors. Survival or tumor size were measured and the results are expressed as the measurement made in the treated group (T) divided by the measurement made in the vehicle treated control group (C). The tumor model used in this assay is L1210 Leukemia resistant to 6-MP and 6-Thioguanine; NSC 755, NSC 752 (intraperitoneal) in B6D2F1 (BDF1) mice

The mark [1] stands for this setting: dose: 25.0 mg/kg/injection, schedule: Q01DX Z (ip), vehicle: carboxymethylcellulose (CMC).

Molecules are shown by their SMILES. Values joined by “and” are separate entries in the source; they are usually repeats but may differ in a detail not shown here. Equal entries are not always repeated. Inconclusive results and toxic doses are left out.

In the case of `CSc1ncnc2c1ncn2C1OC(CO)C(O)C1O` (centres undefined), the T/C was 117 % of control (dose: 2.0 mg/kg/injection, schedule: Q01DX Z (ip), vehicle: saline); 119 % of control and 121 % of control (dose: 3.0 mg/kg/injection, schedule: Q01DX015 (ip), vehicle: saline); 100 % of control (dose: 4.0 mg/kg/injection, schedule: Q01DX Z (oral), vehicle: saline); 158 % of control (dose: 7.0 mg/kg/injection, schedule: Q01DX015 (ip), vehicle: saline); 151 % of control (dose: 7.0 mg/kg/injection, schedule: Q01DX Z (ip), vehicle: saline); 168 % of control (dose: 8.0 mg/kg/injection, schedule: Q01DX Z (ip), vehicle: saline). For the same molecule, the T/C (dose: 8.0 mg/kg/injection, schedule: Q01DX Z (oral), vehicle: saline) was 107 % of control; the T/C (dose: 10.0 mg/kg/injection, schedule: Q## X032 (ip), vehicle: saline) was 114 % of control; the T/C (dose: 12.0 mg/kg/injection, schedule: Q01DX001 (ip), vehicle: alkali diluted with saline) is 102 % of control and 103 % of control; the T/C (dose: 12.0 mg/kg/injection, schedule: Q01DX Z (ip), vehicle: saline) is 175 % of control; the T/C (dose: 12.0 mg/kg/injection, schedule: Q01DX Z (oral), vehicle: saline) was 100 % of control; the T/C (dose: 13.0 mg/kg/injection, schedule: Q02DX008 (ip), vehicle: saline) is 122 % of control. Further, the T/C is 108 % of control (dose: 13.0 mg/kg/injection, schedule: Q## X004 (ip), vehicle: saline); 152 % of control and 166 % of control (dose: 16.0 mg/kg/injection, schedule: Q01DX015 (ip), vehicle: saline); 123 % of control (dose: 16.0 mg/kg/injection, schedule: Q01DX Z (ip), vehicle: clinical formulation); 191 % of control (dose: 16.0 mg/kg/injection, schedule: Q01DX Z (ip), vehicle: saline); 111 % of control (dose: 16.0 mg/kg/injection, schedule: Q01DX Z (oral), vehicle: saline); 116 % of control and 103 % of control (dose: 18.0 mg/kg/injection, schedule: Q01DX001 (ip), vehicle: alkali diluted with saline). Moreover, the T/C is, setting by setting: (dose: 18.0 mg/kg/injection, schedule: Q01DX001 (ip), vehicle: saline) 112 % of control and 98 % of control; (dose: 21.0 mg/kg/injection, schedule: Q01DX015 (ip), vehicle: saline) 159 % of control; (dose: 24.0 mg/kg/injection, schedule: Q01DX015 (ip), vehicle: saline) 163 % of control; (dose: 24.0 mg/kg/injection, schedule: Q01DX Z (ip), vehicle: saline) 119 % of control; (dose: 24.0 mg/kg/injection, schedule: Q01DX Z (oral), vehicle: saline) 113 % of control and 120 % of control; (dose: 24.0 mg/kg/injection, schedule: Q## X032 (ip), vehicle: saline) 150 % of control. Further, the T/C was 118 % of control and 111 % of control (dose: 26.0 mg/kg/injection, schedule: Q01DX001 (ip), vehicle: alkali diluted with saline); 104 % of control (dose: 26.0 mg/kg/injection, schedule: Q01DX001 (ip), vehicle: saline); 114 % of control and 108 % of control (dose: 27.0 mg/kg/injection, schedule: Q01DX001 (ip), vehicle: saline); 121 % of control (dose: 32.0 mg/kg/injection, schedule: Q01DX Z (ip), vehicle: saline); 120 % of control and 106 % of control (dose: 32.0 mg/kg/injection, schedule: Q01DX Z (oral), vehicle: saline); 152 % of control and 158 % of control (dose: 32.0 mg/kg/injection, schedule: Q## X032 (ip), vehicle: saline). In addition, the T/C (dose: 36.0 mg/kg/injection, schedule: Q01DX015 (ip), vehicle: saline) is 114 % of control; the T/C (dose: 37.0 mg/kg/injection, schedule: Q01DX Z (ip), vehicle: saline) is 95 % of control; the T/C (dose: 40.0 mg/kg/injection, schedule: Q01DX001 (ip), vehicle: alkali diluted with saline) is 119 % of control and 106 % of control; the T/C (dose: 40.0 mg/kg/injection, schedule: Q01DX001 (ip), vehicle: saline) was 117 % of control and 98 % of control and 108 % of control; the T/C (dose: 44.0 mg/kg/injection, schedule: Q02DX008 (ip), vehicle: saline) is 158 % of control; the T/C (dose: 45.0 mg/kg/injection, schedule: Q01DX015 (ip), vehicle: saline) is 92 % of control and 94 % of control. The T/C (dose: 45.0 mg/kg/injection, schedule: Q## X004 (ip), vehicle: saline) was 157 % of control; the T/C (dose: 48.0 mg/kg/injection, schedule: Q01DX Z (ip), vehicle: saline) is 96 % of control; the T/C (dose: 48.0 mg/kg/injection, schedule: Q01DX Z (oral), vehicle: saline) is 95 % of control and 103 % of control; the T/C (dose: 48.0 mg/kg/injection, schedule: Q## X032 (ip), vehicle: saline) is 164 % of control and 171 % of control; the T/C (dose: 50.0 mg/kg/injection, schedule: Q01DX Z (ip), vehicle: saline) was 90 % of control; the T/C (dose: 54.0 mg/kg/injection, schedule: Q01DX001 (ip), vehicle: saline) was 109 % of control. Further, the T/C reads like this: (dose: 60.0 mg/kg/injection, schedule: Q01DX001 (ip), vehicle: saline) 119 % of control and 107 % of control; (dose: 61.0 mg/kg/injection, schedule: Q01DX001 (ip), vehicle: alkali diluted with saline) 113 % of control; (dose: 61.0 mg/kg/injection, schedule: Q01DX001 (ip), vehicle: saline) 113 % of control; (dose: 67.0 mg/kg/injection, schedule: Q## X004 (ip), vehicle: saline) 162 % of control; (dose: 72.0 mg/kg/injection, schedule: Q## X032 (ip), vehicle: saline) 165 % of control and 166 % of control; (dose: 81.0 mg/kg/injection, schedule: Q01DX001 (ip), vehicle: saline) 124 % of control. Also, the T/C was 109 % of control (dose: 90.0 mg/kg/injection, schedule: Q01DX001 (ip), vehicle: saline); 123 % of control and 111 % of control (dose: 92.0 mg/kg/injection, schedule: Q01DX001 (ip), vehicle: alkali diluted with saline); 99 % of control (dose: 100.0 mg/kg/injection, schedule: Q02DX008 (ip), vehicle: saline); 170 % of control (dose: 100.0 mg/kg/injection, schedule: Q## X004 (ip), vehicle: saline); 116 % of control and 98 % of control (dose: 108.0 mg/kg/injection, schedule: Q## X032 (ip), vehicle: saline); 116 % of control (dose: 138.0 mg/kg/injection, schedule: Q01DX001 (ip), vehicle: alkali diluted with saline). In addition, the T/C (dose: 138.0 mg/kg/injection, schedule: Q01DX001 (ip), vehicle: saline) was 118 % of control; the T/C (dose: 150.0 mg/kg/injection, schedule: Q## X004 (ip), vehicle: saline) is 164 % of control; the T/C (dose: 207.0 mg/kg/injection, schedule: Q01DX001 (ip), vehicle: alkali diluted with saline) was 119 % of control and 124 % of control; the T/C (dose: 300.0 mg/kg/injection, schedule: Q01DX001 (ip), vehicle: saline) is 111 % of control.

With `Nc1nc(SCc2ccccc2)c2[nH]cnc2n1`, the T/C (dose: 5.0 mg/kg/injection, schedule: Q01DX Z (ip), vehicle: carboxymethylcellulose (CMC)) is 88 % of control; the T/C (dose: 10.0 mg/kg/injection, schedule: Q01DX Z (ip), vehicle: carboxymethylcellulose (CMC)) is 91 % of control; the T/C under setting [1] was 86 % of control; the T/C (dose: 37.5 mg/kg/injection, schedule: Q01DX Z (ip), vehicle: carboxymethylcellulose (CMC)) is 95 % of control.

For `CN(C)[C@@H]1C(=O)C(C(=O)NCc2nc3[nH]cnc(=S)c3[nH]2)=C(O)[C@@]2(O)C(=O)C3=C(O)c4c(O)cccc4[C@@](C)(O)[C@H]3C[C@@H]12`, the T/C (dose: 50.0 mg/kg/injection, schedule: Q01DX009 (ip), vehicle: carboxymethylcellulose (CMC)) was 105 % of control; the T/C (dose: 100.0 mg/kg/injection, schedule: Q01DX009 (ip), vehicle: carboxymethylcellulose (CMC)) is 104 % of control; the T/C (dose: 400.0 mg/kg/injection, schedule: Q01DX009 (ip), vehicle: carboxymethylcellulose (CMC)) is 93 % of control.

`Cn1c(O)c(N=NC(N)=S)c2ccccc21`: the T/C runs as follows: under setting [1], 100 % of control; (dose: 50.0 mg/kg/injection, schedule: Q01DX Z (ip), vehicle: carboxymethylcellulose (CMC)) 105 % of control; (dose: 100.0 mg/kg/injection, schedule: Q01DX Z (ip), vehicle: carboxymethylcellulose (CMC)) 104 % of control; (dose: 200.0 mg/kg/injection, schedule: Q01DX Z (ip), vehicle: carboxymethylcellulose (CMC)) 88 % of control.
